The target of the assay is Collagenase 3 (Homo sapiens, UniProt P45452). Kind of assay: Inhibition of human recombinant MMP13 expressed in Escherichia coli.

The IC50 is the concentration at which inhibition is half-maximal.

Consider `COc1cc(-n2nc(C)c3c2OC(=N)C(C#N)C3c2ccccc2)c(Cl)c(Br)c1O` (stereo unspecified) [6-amino-1-(3-bromo-2-chloro-4-hydroxy-5-methoxyphenyl)-3-methyl-4-phenyl-1,4-dihydropyrano[2,3-c]pyrazole-5-carbonitrile], for which the IC50 is > 40 µM.
